Experimental data published in patent publication US6310091A, “Fungicidal saponin, CAY-1, and isolation thereof from Capsium species fruit” (The United States of America as represented by the …, priority 2000, dated 2001).
Several values for one entry are separate records, joined by “and”; a condition that tells them apart may be missing. Equal values may be shown once. Read-outs that look alike come from different tables or passages of the source.

Columns and labels:
Aspergillus niger = assay: Fungicidal bioassay on nongerminated and germinating conidia of A. niger; format: cell-based; settings: for activity at 5 µM / activity at 10 µM / activity at 15 µM / activity at 20 µM / activity at 1 µM / activity at 2.5 µM: read-out: Percent of Mean Control
Procedure: (§1) 1. Filamentous fungi. Filamentous fungi used in bioassays included Aspergillus flavus, A. fumigatus, A. niger, A. parasiticus and Fusarium oxysporum. The fungicidal properties of CAY-1 for the nongerminated and germinating conidia of these fungi were determined separately as described by De Lucca et al. [Med. Mycol., 36:291-298 (1998)] and De Lucca et al. [Antimicrob. Agents Chemother. 43:371-373 (1999)]. […] Two separate experiments were conducted in each medium (n=8 per medium).
(§2) A suspension of the aforementioned fungi were prepared separately in the appropriate medium. Conidia (10^4 conidia/ml) were used immediately for the nongerminated conidial assays while conidia (10^5 conidia/ml) were incubated for 7.5 hours at 30° C. to obtain germinating conidia. Serial dilutions of CAY-1 were prepared in the appropriate medium (totaling 225 μl) to which was added 25 μl of the conidial suspensions. The control consisted of 225 μl of medium and 25 μl of the conidial suspension. After mixing, the samples were incubated for 30 min (30° C.). Samples were then spread on potato dextrose agar plates which were incubated at 30° C. for 24 hours. Colonies were then enumerated.
(§3) Statistical analyses. ANOVA analyses on ranks for nonparametric data were performed for the bioassays described in this example.

Aspergillus flavus = assay: Fungicidal bioassay on nongerminated and germinating conidia of A. flavus; format: cell-based; settings: Aspergillus flavus, 0.5 h; for activity at 2 µM / activity at 3 µM / activity at 4 µM / activity at 5 µM / activity at 7.5 µM / activity at 10 µM / activity at 1 µM / activity at 2.5 µM: read-out: Percent of Mean Control
Procedure: as §1, §2, §3

`CC1CCC2(OC1)OC1CC3C4CCC5CC(OC6OC(CO)C(OC7OC(CO)C(O)C(OC8OC(CO)C(O)C(OC9OC(CO)C(O)C(O)C9O)C8O)C7OC7OC(CO)C(O)C(O)C7O)C(O)C6O)C(O)CC5(C)C4CCC3(C)C1C2C` (stereo not shown) [CAY-1] gave an activity at 5 µM (Aspergillus niger; Aspergillus niger, 0.5 h, germinated, RPMI-1640, 5.0 μM) of 94.9%, an activity at 10 µM (Aspergillus niger; Aspergillus niger, 0.5 h, germinated, RPMI-1640, 10.0 μM) of 86.2% and an activity at 15 µM (Aspergillus niger; Aspergillus niger, 0.5 h, germinated, RPMI-1640, 15.0 μM) of 93.9%. It also gave an activity at 20 µM (Aspergillus niger; Aspergillus niger, 0.5 h, germinated, RPMI-1640, 20.0 μM) of 85.4%, an activity at 1 µM (Aspergillus niger; Aspergillus niger, 0.5 h, germinating, 1% PDB, 1.0 μM) of 118% and an activity at 2.5 µM (Aspergillus niger; Aspergillus niger, 0.5 h, germinating, 1% PDB, 2.5 μM) of 89.8%. The activity at 5 µM (Aspergillus niger; Aspergillus niger, 0.5 h, germinating, 1% PDB, 5.0 μM) was 18.2%, the activity at 10 µM (Aspergillus niger; Aspergillus niger, 0.5 h, germinating, 1% PDB, 10.0 μM) was 12% and the activity at 15 µM (Aspergillus niger; Aspergillus niger, 0.5 h, germinating, 1% PDB, 15.0 μM) was 5.7%. For the same molecule, the activity at 20 µM (Aspergillus niger; Aspergillus niger, 0.5 h, germinating, 1% PDB, 20.0 μM) was 3.9%, the activity at 1 µM (Aspergillus niger; Aspergillus niger, 0.5 h, nongerminated, 1% PDB, 1.0 μM) was 102% and the activity at 2.5 µM (Aspergillus niger; Aspergillus niger, 0.5 h, nongerminated, 1% PDB, 2.5 μM) was 96.6%. For the same molecule, the activity at 5 µM (Aspergillus niger; Aspergillus niger, 0.5 h, nongerminated, 1% PDB, 5.0 μM) was 118%, the activity at 10 µM (Aspergillus niger; Aspergillus niger, 0.5 h, nongerminated, 1% PDB, 10.0 μM) was 92.7% and the activity at 15 µM (Aspergillus niger; Aspergillus niger, 0.5 h, nongerminated, 1% PDB, 15.0 μM) was 116%. For the same molecule, the activity at 20 µM (Aspergillus niger; Aspergillus niger, 0.5 h, nongerminated, 1% PDB, 20.0 μM) was 64.4%, the activity at 5 µM (Aspergillus niger; Aspergillus niger, 0.5 h, nongerminated, RPMI-1640, 5.0 μM) was 76.8% and the activity at 10 µM (Aspergillus niger; Aspergillus niger, 0.5 h, nongerminated, RPMI-1640, 10.0 μM) was 87.7%. For the same molecule, the activity at 15 µM (Aspergillus niger; Aspergillus niger, 0.5 h, nongerminated, RPMI-1640, 15.0 μM) was 83.8%, the activity at 20 µM (Aspergillus niger; Aspergillus niger, 0.5 h, nongerminated, RPMI-1640, 20.0 μM) was 104% and the IC95 (Aspergillus niger; Aspergillus niger, 0.5 h, read-out: LD95) was 15 µM and 18.6 µg/mL. For the same molecule, the minimal effective concentration (Aspergillus niger; Aspergillus niger, 0.5 h, read-out: concentration achieving significant lethality) was 5 µM and 6.2 µg/mL, the “Mean No. of Colonies” value (Aspergillus niger; germinated, RPMI-1640, 5.0 μM) was 50.1 and the “Mean No. of Colonies” value (Aspergillus niger; germinated, RPMI-1640, 10.0 μM) was 45.5. For the same molecule, the “Mean No. of Colonies” value (Aspergillus niger; germinated, RPMI-1640, 15.0 μM) was 49.6, the “Mean No. of Colonies” value (Aspergillus niger; germinated, RPMI-1640, 20.0 μM) was 45.1 and the “lethality to germinating conidia” value (Aspergillus niger; germinating conidia, RPMI-1640) was “no effect was observed”. For the same molecule, the “Mean No. of Colonies” value (Aspergillus niger; germinating, 1% PDB, 1.0 μM) was 60.4, the “Mean No. of Colonies” value (Aspergillus niger; germinating, 1% PDB, 2.5 μM) was 45.8 and the “Mean No. of Colonies” value (Aspergillus niger; germinating, 1% PDB, 5.0 μM) was 9.3. For the same molecule, the “Mean No. of Colonies” value (Aspergillus niger; germinating, 1% PDB, 10.0 μM) was 6.1, the “Mean No. of Colonies” value (Aspergillus niger; germinating, 1% PDB, 15.0 μM) was 2.9 and the “Mean No. of Colonies” value (Aspergillus niger; germinating, 1% PDB, 20.0 μM) was 2.0. The “viability of nongerminated conidia” value (Aspergillus niger; nongerminated conidia, either test medium) was “not affected”, the “Mean No. of Colonies” value (Aspergillus niger; nongerminated, 1% PDB, 1.0 μM) was 36.5 and the “Mean No. of Colonies” value (Aspergillus niger; nongerminated, 1% PDB, 2.5 μM) was 34.5. The “Mean No. of Colonies” value (Aspergillus niger; nongerminated, 1% PDB, 5.0 μM) was 42.3, the “Mean No. of Colonies” value (Aspergillus niger; nongerminated, 1% PDB, 10.0 μM) was 33.1 and the “Mean No. of Colonies” value (Aspergillus niger; nongerminated, 1% PDB, 15.0 μM) was 41.5. The “Mean No. of Colonies” value (Aspergillus niger; nongerminated, 1% PDB, 20.0 μM) was 23.0, the “Mean No. of Colonies” value (Aspergillus niger; nongerminated, RPMI-1640, 5.0 μM) was 37.5 and the “Mean No. of Colonies” value (Aspergillus niger; nongerminated, RPMI-1640, 10.0 μM) was 42.8. The “Mean No. of Colonies” value (Aspergillus niger; nongerminated, RPMI-1640, 15.0 μM) was 40.9, the “Mean No. of Colonies” value (Aspergillus niger; nongerminated, RPMI-1640, 20.0 μM) was 51.0 and the activity at 2 µM (Aspergillus flavus; germinating, 1% PDB) was 90.1%. The activity at 3 µM (Aspergillus flavus; germinating, 1% PDB) was 74.4%, the activity at 4 µM (Aspergillus flavus; germinating, 1% PDB) was 54.2% and the activity at 5 µM (Aspergillus flavus; germinating, 1% PDB) was 34.9%. It also gave an activity at 7.5 µM (Aspergillus flavus; germinating, 1% PDB) of 11%, an activity at 10 µM (Aspergillus flavus; germinating, 1% PDB) of 8.4% and an activity at 1 µM (Aspergillus flavus; germinating, RPMI-1640) of 132%. It also gave an activity at 2.5 µM (Aspergillus flavus; germinating, RPMI-1640) of 145%, an activity at 5 µM (Aspergillus flavus; germinating, RPMI-1640) of 62.9% and an activity at 7.5 µM (Aspergillus flavus; germinating, RPMI-1640) of 14%. For the same molecule, the activity at 10 µM (Aspergillus flavus; germinating, RPMI-1640) was 9%, the activity at 2 µM (Aspergillus flavus; nongerminated, 1% PDB) was 102% and the activity at 3 µM (Aspergillus flavus; nongerminated, 1% PDB) was 102%. The activity at 4 µM (Aspergillus flavus; nongerminated, 1% PDB) was 103%, the activity at 5 µM (Aspergillus flavus; nongerminated, 1% PDB) was 104% and the activity at 7.5 µM (Aspergillus flavus; nongerminated, 1% PDB) was 106%. For the same molecule, the activity at 10 µM (Aspergillus flavus; nongerminated, 1% PDB) was 108%, the activity at 1 µM (Aspergillus flavus; nongerminated, RPMI-1640) was 88.6% and the activity at 2.5 µM (Aspergillus flavus; nongerminated, RPMI-1640) was 92.2%. For the same molecule, the activity at 5 µM (Aspergillus flavus; nongerminated, RPMI-1640) was 91.7%, the activity at 7.5 µM (Aspergillus flavus; nongerminated, RPMI-1640) was 90.7% and the activity at 10 µM (Aspergillus flavus; nongerminated, RPMI-1640) was 99.2%. The LD95 (concentration lethal to 95% of conidia) (Aspergillus flavus; read-out: LD95) was 12.5 µM and 15.5 µg/mL.
